Measurements as given in article PMC9965906, “Discovery and Development Strategies for SARS-CoV-2 NSP3 Macrodomain Inhibitors” (Pathogens, 2023).
Several values for one entry are separate records, joined by “and”; a condition that tells them apart may be missing. Identical values can stand only once. Like-named read-outs stand apart in the source and are kept apart here.

Target: SARS-CoV-2 NSP3 Mac1 (Severe acute respiratory syndrome coronavirus 2, UniProt P0DTD1)
Test: biochemical
Type: binding
Details: for IC50 / IC50 in µM: top concentration 125 µM, 8-point 1:1 dilution; for IC50: read-out: IC50; for inhibition at 125 µM: read-out: Inhibition at top concentration of 125 µM (%); for inhibitory activity in FDA-approved library screen: primary screen at the set screening concentration
[1] = MIDAS compound library primary screen, 25 µM
[2] = MIDAS hit compounds and analogues, duplicate
[3] = MIDAS hit compounds and analogues, 125 µM
[4] = FDA-approved compound library primary screen, 50 µM, single shot
[5] = BioAscent virtual screening hit compounds, 25 µM, duplicate

Row | Structure (SMILES) | IC50 in µM [2] | inhibition at 125 µM [3] [%] | other results
1 | CCOc1ccc2c(C)c(C(=O)N[C@@H]3CCNC[C@H]3O)oc2c1OCC [IAL-MD0127, O=C(C(O1)=C(C)C2=C1C(OCC)=C(OCC)C=C2)N[C@H]3[C@H](O)CNCC3.[H]Cl] | – | – | inhibition at 25 µM [1]: 40%; IC50 [2]: 38 µM; inhibition at 125 µM: 66.5%
2 | CC(=O)N1CCN(C(=O)c2cc(-c3ccccc3)nc3c2cnn3C(C)C)CC1 [IAL-MD0082, CC(C)N1N=CC=2C(=CC(=NC12)C=3C=CC=CC3)C(=O)N4CCN(CC4)C(=O)C] | Not measurable | – | Inhibition at top concentration of 125 µM (%) [3]: Not measurable
3 | C=CCCCCCCCCC(=O)[O-].C=CCCCCCCCCC(=O)[O-].[Zn+2] [Zinc undecylenate, reference compound] | – | – | NSP3 Mac1 inhibition at 50 µM (%) [4]: 68.0%
4 | CCCc1nc2c(C)cc(-c3nc4ccccc4n3C)cc2n1Cc1ccc(-c2ccccc2C(=O)O)cc1 [telmisartan, reference compound] | – | – | inhibitory activity in FDA-approved library screen: could yet not measure any inhibitory activity
5 | COc1ccc(-c2cc(C(=O)NC3CC3)c3ccccc3n2)cc1 [IAL-MD0103, COC=1C=CC(=CC1)C=2C=C(C(=O)NC3CC3)C=4C=CC=CC4N2] | Not measurable | 38.4 | –
6 | CC(C)n1ncc2c(C(=O)N3CCNC(=O)C3)cc(-c3ccc4c(c3)OCCO4)nc21 [IAL-MD0044, CC(C)N1N=CC=2C(=CC(=NC12)C=3C=CC=4OCCOC4C3)C(=O)N5CCNC(=O)C5] | Not measurable | 30.2 | –
7 | CCn1ncc2c(C(=O)N(Cc3ccccn3)C(C)C)cc(-c3cccs3)nc21 [IAL-MD0071, CCN1N=CC=2C(=CC(=NC12)C3=CC=CS3)C(=O)N(CC=4C=CC=CN4)C(C)C] | Not measurable | 36.8 | –
8 | CC(=O)Nc1cccc(C(=O)N2CCC(c3c[nH]c4ncccc34)CC2)c1 [IAL-MD0078, CC(=O)NC=1C=CC=C(C1)C(=O)N2CCC(CC2)C3=CNC=4N=CC=CC34] | Not measurable | 10.5 | –
9 | COc1ccc(-c2cc(C(=O)O)c3ccccc3n2)cc1OC [IAL-MD0094, COC=1C=CC(=CC1OC)C=2C=C(C(=O)O)C=3C=CC=CC3N2] | Not measurable | 31.9 | –
10 | Cc1ccc(C(=O)Nc2ccc(S(=O)(=O)O)c3cc(S(=O)(=O)O)cc(S(=O)(=O)O)c23)cc1NC(=O)c1cccc(NC(=O)Nc2cccc(C(=O)Nc3cc(C(=O)Nc4ccc(S(=O)(=O)O)c5cc(S(=O)(=O)O)cc(S(=O)(=O)O)c45)ccc3C)c2)c1 [Suramin hexasodium, reference compound] | – | – | inhibition at 50 µM [4]: 55.8%; inhibitory activity in FDA-approved library screen: confirm the inhibitory activity
11 | CC(C)n1ncc2c(C(=O)N3CC(=O)Nc4ccccc43)cc(-c3cccs3)nc21 [IAL-MD0049, CC(C)N1N=CC=2C(=CC(=NC12)C3=CC=CS3)C(=O)N4CC(=O)NC=5C=CC=CC45] | Not measurable | 14.3 | –
12 | Cn1ccc2c(-c3ncccc3C(=O)N3CCCCC3)ccnc21 [IAL-MD0138, O=C(C1=CC=CN=C1C2=C3C(N(C)C=C3)=NC=C2)N4CCCCC4] | – | 79.4 | IC50 [2]: 36 µM
13 | CC(C#N)NC(=O)c1cc(-c2cccs2)nc2c1cnn2C(C)C (stereo not shown) [IAL-MD0095, CC(C)N1N=CC=2C(=CC(=NC12)C3=CC=CS3)C(=O)NC(C)C#N] | Not measurable | 19.8 | –
14 | COc1ccc(-c2cc(C(=O)Nc3nnc[nH]3)c3ccccc3n2)cc1 [IAL-MD0079, COC=1C=CC(=CC1)C=2C=C(C(=O)NC3=NN=CN3)C=4C=CC=CC4N2] | Not measurable | 16.3 | –
15 | CCC(C)NC(=O)c1cc(-c2ccc(OC)cc2)nc2ccccc12 (stereo not shown) [IAL-MD0035, CCC(C)NC(=O)C=1C=C(N=C2C=CC=CC12)C=3C=CC(OC)=CC3] | Not measurable | 6.8 | –
16 | Cc1cccn2c(=O)c3cc(C(=O)O)n(C)c3nc12 [BCC0049478, Cc1cccn2c(=O)c3cc(C(=O)O)n(C)c3nc12] | – | – | inhibition at 25 µM [5]: 30.6%
17 | Oc1nc2ccccc2nc1-c1c[nH]c2ccccc12 [BCC0071692, Oc1nc2ccccc2nc1-c1c[nH]c2ccccc12] | – | – | inhibition at 25 µM [5]: 35%
18 | Cn1ccc2c(-c3cc(C(=O)N4CCCC4)ccn3)ccnc21 [IAL-MD0139, O=C(C1=CC(C2=C3C(N(C)C=C3)=NC=C2)=NC=C1)N4CCCC4] | Not measurable | 21.7 | –
19 | CC1(C(=O)N2CCCC(c3c[nH]c4ncccc34)C2)CCC(=O)NC1 (stereo not shown) [IAL-MD0114, CC1(CCC(=O)NC1)C(=O)N2CCCC(C2)C3=CNC=4N=CC=CC34] | Not measurable | 13.4 | –
20 | CC(C)n1ncc2c(C(=O)Nc3ccncc3)cc(-c3cccs3)nc21 [IAL-MD0055, CC(C)N1N=CC=2C(=CC(=NC12)C3=CC=CS3)C(=O)NC=4C=CN=CC4] | Not measurable | 19.4 | –
21 | CC(=O)[O][Hg][c]1ccccc1 [Phenylmercuric acetate, reference compound] | – | – | NSP3 Mac1 inhibition at 50 µM (%): 58.1%
22 | CN(C)c1ccc(-c2ccc3ccccc3n2)cc1 [BCC0083752, CN(C)c1ccc(-c2ccc3ccccc3n2)cc1] | – | – | inhibition at 25 µM [5]: 46.8%

Row | Structure (SMILES) | IC50 in µM [2] | inhibition at 125 µM [3] [%] | other results
23 | CCn1ncc2c(C(=O)Nc3cccc(-c4nnco4)c3)cc(-c3cccs3)nc21 [IAL-MD0061, CCN1N=CC=2C(=CC(=NC12)C3=CC=CS3)C(=O)NC=4C=CC=C(C4)C5=NN=CO5] | Not measurable | 7 | –
24 | Oc1cc2ccccc2nc1-c1ccccc1 [BCC0093974, Oc1cc2ccccc2nc1-c1ccccc1] | – | – | inhibition at 25 µM [5]: 38.6%
25 | CCn1ncc2c(C(=O)NC(C)c3ccccn3)cc(-c3cccs3)nc21 (stereo not shown) [IAL-MD0119, CCN1N=CC=2C(=CC(=NC12)C3=CC=CS3)C(=O)NC(C)C=4C=CC=CN4] | Not measurable | 6.3 | –
26 | CNC(=O)CN(C)C(=O)c1cc(-c2cccs2)nc2c1c(C)nn2C [IAL-MD0081, CNC(=O)CN(C)C(=O)C=1C=C(N=C2N(C)N=C(C)C12)C3=CC=CS3] | Not measurable | 53 | –
27 | Cc1nn(C)c2nc(-c3cccs3)cc(C(=O)NCc3ccccn3)c12 [IAL-MD0048, CC1=NN(C)C=2N=C(C=C(C(=O)NCC=3C=CC=CN3)C12)C4=CC=CS4] | Not measurable | 15.8 | –
28 | Cn1ccc2c(-c3ccc(Cn4ccnc4)cn3)ccnc21 [IAL-MD0145, CN1C=CC2=C(C3=NC=C(CN4C=CN=C4)C=C3)C=CN=C21] | – | 81.1 | IC50 [2]: 14 µM
29 | O=C(O)c1cc(-c2ccc(OC(F)F)cc2)nc2ccccc12 [IAL-MD0089, OC(=O)C=1C=C(N=C2C=CC=CC12)C=3C=CC(OC(F)F)=CC3] | Not measurable | 5.7 | –
30 | CC(C)n1ncc2c(C(=O)N3CCCCC3C(=O)N3CCCC3)cc(-c3cccs3)nc21 (stereo not shown) [IAL-MD0080, CC(C)N1N=CC=2C(=CC(=NC12)C3=CC=CS3)C(=O)N4CCCCC4C(=O)N5CCCC5] | Not measurable | 45.9 | –
31 | COc1ccc(-c2cc(C(=O)O)c3c(C)cc(C)cc3n2)cc1 [IAL-MD0029, COC=1C=CC(=CC1)C=2C=C(C(=O)O)C=3C(C)=CC(C)=CC3N2] | – | 61.2 | IC50 [2]: 76 µM and 75.9 µM
32 | CN1CCC(Cn2ccnc2-c2ccc(-c3ccccc3C#N)o2)C1 (stereo not shown) [IAL-MD0129, N#CC1=CC=CC=C1C2=CC=C(C3=NC=CN3CC4CN(C)CC4)O2] | – | – | inhibition at 25 µM [1]: 55%; Inhibition at top concentration of 125 µM (%) [3]: Not measurable due to compound precipitation; IC50 [2]: 14.2 µM
33 | NNc1nncc2ccccc12 [hydralazine, reference compound] | – | – | inhibitory activity in FDA-approved library screen: no NSP3 Mac1 inhibition
34 | CC(C)n1ncc2c(C(=O)N(C)Cc3cccc(O)c3)cc(-c3cccs3)nc21 [IAL-MD0104, CC(C)N1N=CC=2C(=CC(=NC12)C3=CC=CS3)C(=O)N(C)CC=4C=CC=C(O)C4] | Not measurable | 18.4 | –
35 | COCCNC(=O)c1ccc(-c2ccnc3c2ccn3C)o1 [Compound 1, COCCNC(=O)c1ccc(o1)-c1ccnc2n(ccc12)C] | – | – | inhibition at 25 µM [1]: 73%; NSP3 Mac1 inhibition at 25 µM (%) (MIDAS compound library primary screen, 25 µM, listed as ARUK4007189-001-001, 25 µM): 73.1%
36 | CNC(=O)c1ccc(C(=O)N2CCC(c3c[nH]c4ncccc34)CC2)cn1 [IAL-MD0115, CNC(=O)C=1C=CC(=CN1)C(=O)N2CCC(CC2)C3=CNC=4N=CC=CC34] | Not measurable | 9.3 | –
37 | COc1ccc(-c2cc(C(=O)Nc3cccc(S(=O)(=O)N(C)C)c3)c3ccccc3n2)cc1 [IAL-MD0101, COC=1C=CC(=CC1)C=2C=C(C(=O)NC=3C=CC=C(C3)S(=O)(=O)N(C)C)C=4C=CC=CC4N2] | Not measurable | 25.2 | –
38 | Cc1ccc(Cn2ncc3c(C(=O)N4CCNC(=O)C4)cc(C)nc32)cc1 [IAL-MD0124, CC=1C=CC(CN2N=CC=3C(=CC(C)=NC23)C(=O)N4CCNC(=O)C4)=CC1] | Not measurable | – | Inhibition at top concentration of 125 µM (%) [3]: Not measurable
39 | CC(C)n1ncc2c(C(=O)N3CCNC(=O)C3)cc(-c3ccco3)nc21 [IAL-MD0070, CC(C)N1N=CC=2C(=CC(=NC12)C3=CC=CO3)C(=O)N4CCNC(=O)C4] | – | 83.2 | IC50 [2]: 16.3 µM
40 | CC1CN(C(=O)c2cc(-c3cccs3)nc3c2cnn3C(C)C)C(C)(C)CO1 (stereo not shown) [IAL-MD0087, CC(C)N1N=CC=2C(=CC(=NC12)C3=CC=CS3)C(=O)N4CC(C)OCC4(C)C] | Not measurable | 22.3 | –
41 | O=C(O)CCc1nc(-c2ccccc2)c(-c2ccccc2)o1 [oxaprozin, reference compound] | – | – | inhibitory activity in FDA-approved library screen: could not be identified in our screen
42 | COc1ccc(C(=O)CC(=O)c2ccc(C(C)(C)C)cc2)cc1 [Avobenzone, reference compound] | – | – | NSP3 Mac1 inhibition at 50 µM (%) [4]: 62%; inhibition at 50 µM [4]: 61.8%
43 | CC1c2cccn2CCN1C(=O)c1cc(-c2cccs2)nc2c1cnn2C(C)C (stereo not shown) [IAL-MD0072, CC(C)N1N=CC=2C(=CC(=NC12)C3=CC=CS3)C(=O)N4CCN5C=CC=C5C4C] | Not measurable | 9.8 | –
